Experimental findings from patent US5405857A, “3-substituted 1,2,3,4,-oxatriazole-5-imine compounds, a process for the preparation thereof and a pharmaceutical preparation containing said compounds” (A/S GEA Farmaceutisk Fabrik, priority 1991, dated 1995) are described below.

The term EC50 denotes the concentration giving half of the maximal effect.

In one assay the test system is PAI-1. The experiment in a line: Inhibition of plasminogen activator inhibitor (PAI-1) from blood platelets (fibrinolytic activity). It counts as cell-based, human. To be noted: 50 μM, 60 minutes. The procedure: Compounds according to the invention were tested for their inhibition of plasminogen activator inhibitor (PAI). An established thrombus comprises aggregated platelets cohered by fibrin. The organism has a fibrinolyric system for maintaining normal physiological conditions. Endogenous plasminogen is activated to plasmin (fibrinolysin, that is a proteolytic enzyme decomposing fibrin) by means of a tissue plasminogen activator (t-PA). The platelets include the enzyme PAI-1 inhibiting the activation of plasminogen to plasmin, and thus also the decomposition of fibrin.
A general stimulation of the fibrinolytic system can cause serious hemostatic side effects (haemorrhages). A specific inhibition of PAI-1 induces an increased fibrinolysis in areas with many platelets, which is exactly the case in thrombi. As a result a thrombolytic effect is obtained.
Human PRP prepared by slight centrifugation as previously mentioned is used, but at a low temperature (4° C.). By incubation of PRP (1 ml in a plastic tube) during a slight shaking at 37° C. the PAI-1 activity is liberated, said PAI-1 activity being measured spectrophotometrically by means of a two-step procedure using commercial kits (Spectrolyse™/fibrin kit from BIOPOOL, Sweden).
The PAI-1 activity of the control PRP and PRP incubated with each of 6 compounds according to the invention and the reference substance sodium niroprusside (NNP) (50 μM of each for 60 minutes) appear from Table 6.

The next assay concerns pre-contracted trachea. The experiment in a line: Relaxation of pre-contracted isolated trachea. Further details: species or system guinea pig. The following applies: Cavia porcellus; carbamylcholine 0.3 μM, Krebs buffer, 37° C. The protocol: Compounds according to the invention were tested for their ability to relax a pre-contracted trachea. A contraction of the respiratory passages in combination with a swelling of the mucuos membrane therein presents a vital factor at asthmatic conditions. Relaxation or dilation of the contracted respiratory passages will improve the asthmatic condition.
An isolated trachea from a guinea pig is used. After preparation of a strip which has maintained the circular musculature, the organ is divided into two parts of equal size. The two tracheal strips are suspended in their respective organ bath and connected to a transducer recording the contraction and relaxation of the organ by means of a recorder. The two tracheal strips are continuously bathed in a Krebs buffer at 37° C., constantly bubbled with carbogen (95% O2 and 5% CO2). After an equilibration time of about 3 hours the organs are tested for their sensitivity (contractility) to carbamylcholin a bolus being added directly to the bath (0.3 μM). If the contraction is satisfactory, the organs are transferred to the Krebs buffer containing the same concentration of carbamylcholine. The organs are now constantly exposed to the carbamylcholine and slowly develop a permanent contraction ("asthma"). The test substances are in bolus form added directly to the organ bath. After maximum effect (relaxation) the substances are removed by washing out and the tracheal strip reverts to its permanent contraction state. […] An EC50 -value (that is the concentration relaxing the organ by 50% relative to the maximum relaxation) is calculated for each test substance by means of a linear regression analysis (log concentration (μM) as a constant ad abscissa and % relaxation as variable ad ordinate). Sodium nitroprusside (NNP) and SIN-1 are used as reference substances.

Each structure is given as a SMILES string.

In the case of `COc1ccc(Cl)cc1-[n+]1noc([NH-])n1` [Example 20], in the assay on PAI-1 (compared to control), the “% Inhibition of PAI-1 activity” value is listed as 35%. Also, the PAI-1 activity in the assay with PAI-1 (human PRP, control 3.24) was found to be 2.09 U/10^8 platelets. The EC50 in the assay on pre-contracted trachea stood at 2700 nM.
